# Experiments:
# F508del-CFTR = molecular target: T1, F508del-CFTR (Homo sapiens, UniProt P13569, DEL508-508); assay: CFTR activation assay: short-circuit current measurements (Ussing chamber) in CFBE cells treated 24 h with CFTR modulator(s) plus compound; format: cell-based; details: for F508del-CFTR activity ('inhibition shift' induced by CFTR-172) in reference to the CFTR activity induced by Trikafta® alone (value=100): substance with R1 = [drawing 9], CFBE cells, with Trikafta®
# T1 construct: expressed in transfected cells; host or cells: CFBE41o- cells (CFBE F508del-CFTR), puromycin-selected
# T1 sequence (P13569 with tags, fused parts or gaps DEL508-508): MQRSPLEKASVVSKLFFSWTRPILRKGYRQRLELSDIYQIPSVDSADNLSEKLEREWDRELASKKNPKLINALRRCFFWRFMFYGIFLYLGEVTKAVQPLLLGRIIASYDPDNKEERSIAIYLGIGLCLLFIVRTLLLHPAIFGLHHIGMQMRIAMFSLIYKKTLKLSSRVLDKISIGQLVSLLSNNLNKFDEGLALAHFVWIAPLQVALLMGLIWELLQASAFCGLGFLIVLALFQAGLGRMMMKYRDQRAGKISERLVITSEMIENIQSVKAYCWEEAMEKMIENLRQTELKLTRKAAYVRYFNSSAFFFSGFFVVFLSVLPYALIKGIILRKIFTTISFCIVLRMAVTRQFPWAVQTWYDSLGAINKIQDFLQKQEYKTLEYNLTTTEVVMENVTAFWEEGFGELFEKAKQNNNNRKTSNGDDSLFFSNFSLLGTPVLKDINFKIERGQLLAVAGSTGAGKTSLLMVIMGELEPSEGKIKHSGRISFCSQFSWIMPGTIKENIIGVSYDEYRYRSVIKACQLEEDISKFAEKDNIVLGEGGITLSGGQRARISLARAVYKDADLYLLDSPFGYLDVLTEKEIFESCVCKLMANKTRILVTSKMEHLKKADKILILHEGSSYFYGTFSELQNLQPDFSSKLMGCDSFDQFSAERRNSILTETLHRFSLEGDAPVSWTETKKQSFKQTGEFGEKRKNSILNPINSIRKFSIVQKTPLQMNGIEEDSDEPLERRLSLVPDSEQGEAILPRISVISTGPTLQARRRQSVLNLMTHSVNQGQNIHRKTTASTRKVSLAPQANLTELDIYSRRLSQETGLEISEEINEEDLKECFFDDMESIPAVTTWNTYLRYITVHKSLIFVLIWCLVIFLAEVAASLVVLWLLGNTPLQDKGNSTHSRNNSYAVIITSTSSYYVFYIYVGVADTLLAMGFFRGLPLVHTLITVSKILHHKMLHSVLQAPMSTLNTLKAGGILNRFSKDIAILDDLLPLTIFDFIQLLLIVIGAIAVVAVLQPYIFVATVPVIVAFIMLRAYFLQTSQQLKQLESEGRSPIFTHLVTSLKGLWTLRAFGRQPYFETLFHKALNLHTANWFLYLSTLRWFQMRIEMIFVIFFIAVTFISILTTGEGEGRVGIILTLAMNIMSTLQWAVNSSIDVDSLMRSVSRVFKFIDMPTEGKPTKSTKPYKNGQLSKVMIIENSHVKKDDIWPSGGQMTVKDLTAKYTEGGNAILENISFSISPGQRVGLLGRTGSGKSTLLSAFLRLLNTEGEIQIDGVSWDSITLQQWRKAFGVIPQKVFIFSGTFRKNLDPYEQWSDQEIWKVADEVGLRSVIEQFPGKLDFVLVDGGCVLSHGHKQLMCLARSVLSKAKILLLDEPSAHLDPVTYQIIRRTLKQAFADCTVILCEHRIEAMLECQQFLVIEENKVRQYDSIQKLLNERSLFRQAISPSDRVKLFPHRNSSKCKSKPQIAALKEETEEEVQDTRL
# Method: • FIG 1. represents the conductance measurement as a function of time for assessing the activity of F508del-CFTR in CFBE cells using the Ussing chamber as set forth in example 13. Cells are incubated for 24 hours with either Trikafta® alone or Trikafta® + a compound of formula (I) as defined herein after. Conductance is measured as a function of time. […] This is the measure which are reported in all Tables shown below. • FIG 2. The correcting effect of Trikafta® on F508del-CFTR in a pulmonary epithelial cell line derived from a F508del-CFTR CF patient was tested as set forth in example 13 herein after in the presence of increasing concentrations of compound (44) as defined herein after and compound (107) as defined herein after. Dose-response curves were built from the activation and inhibition data (see FIG. 1). 100% represents the activity of Trikafta® alone. • FIG 3. […] CFE cells were treated with Trikafta® 100%, 33%, or 11%, in the absence or presence of 1 µM of compound (107). F508del-CFTR activity was monitored as described in the Experimental section and above. Activity is reported as percentage of δF508del-CFTR activity in the presence of Trikafta® alone (100%). The fold change over the activity of Trikafta® alone is indicated in parentheses. • FIG 4. The correcting effect of further CFTR modulators than Trikafta®, i.e. Galapagos compounds as defined herein after (GLPG 222 (G1), GLPG 1837 (G2), GLPG 2451 (G3)) (1 µM each) on F508del-CFTR in a pulmonary epithelial cell line derived from a F508del-CFTR CF patient was tested as set forth in example 13 herein after in the presence of increasing concentrations of compound (107) as defined herein after. Dose-response curves were built from the activation and inhibition data (see FIG. 1). 100% represents the activity of each CFTR modulator alone.
# The activity of F508del-CFTR was indeed estimated according to the method described below in example 13. This method makes use of CFBE cells, an immortalized cell line generated from bronchial epithelium of a CF patient homozygous for F508del-CFTR [Kunzelmann, K. et al., 1993. An immortalized cystic fibrosis tracheal epithelial cell line homozygous for the F508del CFTR mutation. Am. J. Respir. Cell Mol. Biol. 8, 522-529.]. Cells are exposed for 24 hours to a combination of Trikafta® and a compound of formula (I) as defined herein after to be evaluated, and the activity of F508del-CFTR is measured by conductance in a Ussing chamber. The activation is initiated by addition of Forskolin (1 µM). […] All compounds tested were evaluated in combination with Trikafta®. In most instances, compounds were tested in triplicates at 0.1, 1 and 10 µM.
# Wild-type CFBE cells (containing full-length, unmutated CFTR) are used as a reference.
# F508del-CFTR expressing cells used in this present study were treated with CFTR modulators 24 h prior the experiments. The following CFTR modulators were used: Vx770 (Ivacaftor) (Selleckchem, S 1144) (Selleckchem, 24, rue des Tuileries, BP684, 67460 Souffelweyersheim, France), Vx445 (Elexacaftor) (Selleckchem, SE-S8851), Vx661 (Tezacaftor) (TargetMol, HY-15448) (TargetMol, Tebu-bio, 39 rue de Houdan, BP 15, 78612 Le-Perray-en-Yvelines cedex, France). Trikafta® is the combination of 1 µM Vx770, 3 µM Vx 445 and […] Vx661.
# CFBE cell line stably expressing F508del-CFTR or WT-CFTR (CFBE WT-CFTR) were grown at 37°C in 5% CO2 - 95% air and media was replaced every 2 days.
# CLK4 = CLK4 (Homo sapiens, UniProt Q9HAZ1); assay: Kinase inhibition, dose-response; format: biochemical
# CLK4, sequence (Q9HAZ1 whole entry, species assumed): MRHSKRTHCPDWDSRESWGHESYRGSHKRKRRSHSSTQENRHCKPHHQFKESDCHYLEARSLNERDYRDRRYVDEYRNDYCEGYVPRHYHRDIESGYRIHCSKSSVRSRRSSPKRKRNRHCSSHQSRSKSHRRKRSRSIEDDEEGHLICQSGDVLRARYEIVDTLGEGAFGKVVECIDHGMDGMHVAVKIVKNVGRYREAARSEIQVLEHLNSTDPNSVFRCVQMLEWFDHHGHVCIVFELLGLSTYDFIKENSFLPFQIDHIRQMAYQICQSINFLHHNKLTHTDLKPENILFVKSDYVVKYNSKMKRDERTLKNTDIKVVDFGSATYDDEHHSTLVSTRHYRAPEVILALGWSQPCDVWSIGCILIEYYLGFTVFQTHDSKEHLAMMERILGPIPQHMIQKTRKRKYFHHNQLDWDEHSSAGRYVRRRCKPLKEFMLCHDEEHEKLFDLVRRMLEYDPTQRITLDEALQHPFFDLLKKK
# From the text: All compounds were additionally tested over a range of concentrations for their ability to inhibit a series of 14 kinases. […] Their F508del-CFTR activity is reported as percentage of F508del-CFTR activity in the presence of Trikafta alone (100%).
# DYRK1A = DYRK1A (Homo sapiens, UniProt Q13627); assay: Kinase inhibition, dose-response; format: biochemical; details: > 10: no inhibition at 10 µM, the highest dose tested
# Method: (§1) All compounds were additionally tested over a range of concentrations for their ability to inhibit a series of 14 kinases. IC50 values were calculated from the dose-response curves and are reported in µM. > 10, no inhibition at 10 µM, the highest dose tested (see table 6 below). [drawing 409] Table 5: CFE cells were treated with Trikafta in the presence of increasing concentrations of various compounds and their N7-methylated counterparts. Their F508del-CFTR activity is reported as percentage of F508del-CFTR activity in the presence of Trikafta alone (100%).
# CK1γ2 = CK1γ2 (Homo sapiens, UniProt P78368); assay: Kinase inhibition, dose-response; format: biochemical; details: > 10: no inhibition at 10 µM, the highest dose tested
# Method: as §1
# CDK2 = CDK2 (Homo sapiens, UniProt P24941); assay: Kinase inhibition, dose-response; format: biochemical; details: > 10: no inhibition at 10 µM, the highest dose tested
# Method: as §1
# CDK9 = CDK9 (Homo sapiens, UniProt P50750); assay: Kinase inhibition, dose-response; format: biochemical; details: > 10: no inhibition at 10 µM, the highest dose tested
# CDK9, sequence (P50750 whole entry, species assumed): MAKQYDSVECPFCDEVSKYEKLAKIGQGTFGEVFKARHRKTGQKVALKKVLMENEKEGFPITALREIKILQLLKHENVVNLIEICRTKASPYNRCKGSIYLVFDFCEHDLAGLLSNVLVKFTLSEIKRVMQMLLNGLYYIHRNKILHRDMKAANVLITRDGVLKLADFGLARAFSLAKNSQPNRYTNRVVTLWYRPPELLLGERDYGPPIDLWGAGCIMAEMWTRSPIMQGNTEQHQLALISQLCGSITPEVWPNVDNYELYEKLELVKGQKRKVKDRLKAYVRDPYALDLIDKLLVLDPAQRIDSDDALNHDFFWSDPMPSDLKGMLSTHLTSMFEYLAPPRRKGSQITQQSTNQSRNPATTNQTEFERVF
# CDK9, sequence (O60563 whole entry partner, species assumed): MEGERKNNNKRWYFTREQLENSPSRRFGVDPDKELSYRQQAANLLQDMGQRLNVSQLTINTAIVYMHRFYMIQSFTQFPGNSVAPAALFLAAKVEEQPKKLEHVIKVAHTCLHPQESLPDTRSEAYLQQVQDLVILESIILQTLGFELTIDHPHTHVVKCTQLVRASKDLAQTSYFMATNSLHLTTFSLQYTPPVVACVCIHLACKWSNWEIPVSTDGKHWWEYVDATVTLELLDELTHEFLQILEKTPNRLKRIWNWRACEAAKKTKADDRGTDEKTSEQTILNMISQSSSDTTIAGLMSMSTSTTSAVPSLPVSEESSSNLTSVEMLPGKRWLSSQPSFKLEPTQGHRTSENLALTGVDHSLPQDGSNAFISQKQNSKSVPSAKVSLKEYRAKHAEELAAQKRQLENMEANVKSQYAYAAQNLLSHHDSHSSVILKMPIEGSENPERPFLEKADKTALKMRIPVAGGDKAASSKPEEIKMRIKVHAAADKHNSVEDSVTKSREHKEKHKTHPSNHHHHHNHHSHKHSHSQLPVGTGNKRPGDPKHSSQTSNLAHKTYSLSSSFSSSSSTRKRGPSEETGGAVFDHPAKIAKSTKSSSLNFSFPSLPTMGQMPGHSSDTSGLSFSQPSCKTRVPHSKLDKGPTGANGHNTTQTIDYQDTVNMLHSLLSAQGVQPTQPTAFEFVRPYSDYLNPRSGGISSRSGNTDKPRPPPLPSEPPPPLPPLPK
# Method: as §1
# CK1ε = CK1ε (Homo sapiens, UniProt P49674); assay: Kinase inhibition, dose-response; format: biochemical; details: > 10: no inhibition at 10 µM, the highest dose tested
# CK1ε, sequence (P49674 whole entry): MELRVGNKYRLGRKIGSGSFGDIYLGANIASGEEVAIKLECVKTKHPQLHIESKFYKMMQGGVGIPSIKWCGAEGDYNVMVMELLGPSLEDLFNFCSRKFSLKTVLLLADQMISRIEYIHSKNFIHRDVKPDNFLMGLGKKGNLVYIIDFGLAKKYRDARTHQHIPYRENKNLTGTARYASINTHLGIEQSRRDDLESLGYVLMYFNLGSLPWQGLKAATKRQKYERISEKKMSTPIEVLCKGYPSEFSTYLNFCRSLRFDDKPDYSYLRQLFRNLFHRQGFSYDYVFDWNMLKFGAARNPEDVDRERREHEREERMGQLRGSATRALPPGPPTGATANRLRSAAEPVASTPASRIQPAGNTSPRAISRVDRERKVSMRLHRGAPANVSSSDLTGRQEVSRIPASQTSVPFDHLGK
# Method: as §1
# CK1γ1 = CK1γ1 (Homo sapiens, UniProt Q9HCP0); assay: Kinase inhibition, dose-response; format: biochemical; details: > 10: no inhibition at 10 µM, the highest dose tested
# Method: as §1
# CK1α1 = CK1α1 (Homo sapiens, UniProt P48729); assay: Kinase inhibition, dose-response; format: biochemical; details: > 10: no inhibition at 10 µM, the highest dose tested
# CK1α1, sequence (P48729 whole entry): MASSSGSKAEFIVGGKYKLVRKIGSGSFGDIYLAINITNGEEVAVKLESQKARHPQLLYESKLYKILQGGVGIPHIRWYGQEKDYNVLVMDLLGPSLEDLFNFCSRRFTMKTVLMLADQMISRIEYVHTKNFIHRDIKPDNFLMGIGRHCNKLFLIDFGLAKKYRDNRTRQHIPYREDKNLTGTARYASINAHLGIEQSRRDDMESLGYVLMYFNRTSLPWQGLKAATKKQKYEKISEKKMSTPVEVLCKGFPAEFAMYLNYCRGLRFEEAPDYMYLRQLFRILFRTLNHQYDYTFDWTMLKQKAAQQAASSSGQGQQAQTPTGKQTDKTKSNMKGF
# Method: as §1
# CDK7 = CDK7 (Homo sapiens, UniProt P50613); assay: Kinase inhibition, dose-response; format: biochemical; details: > 10: no inhibition at 10 µM, the highest dose tested
# CDK7, sequence (P50613 whole entry, species assumed): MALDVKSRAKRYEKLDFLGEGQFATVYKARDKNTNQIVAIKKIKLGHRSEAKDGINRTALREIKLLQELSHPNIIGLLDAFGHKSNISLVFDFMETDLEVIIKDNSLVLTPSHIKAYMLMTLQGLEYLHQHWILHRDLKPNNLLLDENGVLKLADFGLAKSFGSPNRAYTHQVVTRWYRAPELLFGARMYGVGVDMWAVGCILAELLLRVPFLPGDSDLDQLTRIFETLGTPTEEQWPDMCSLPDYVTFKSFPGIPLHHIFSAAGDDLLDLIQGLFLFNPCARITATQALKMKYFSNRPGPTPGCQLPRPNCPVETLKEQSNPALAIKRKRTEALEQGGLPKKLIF
# CDK7, sequence (P51946 whole entry partner, species assumed): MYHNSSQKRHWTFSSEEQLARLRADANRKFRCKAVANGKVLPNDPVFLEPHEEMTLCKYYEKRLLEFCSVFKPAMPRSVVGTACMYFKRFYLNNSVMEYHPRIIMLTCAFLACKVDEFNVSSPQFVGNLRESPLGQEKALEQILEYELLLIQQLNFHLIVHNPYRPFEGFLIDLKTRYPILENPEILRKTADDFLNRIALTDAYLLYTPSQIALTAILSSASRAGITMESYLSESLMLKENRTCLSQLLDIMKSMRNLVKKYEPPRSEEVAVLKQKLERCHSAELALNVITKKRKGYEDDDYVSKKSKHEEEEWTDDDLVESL
# CDK7, sequence (P51948 whole entry partner, species assumed): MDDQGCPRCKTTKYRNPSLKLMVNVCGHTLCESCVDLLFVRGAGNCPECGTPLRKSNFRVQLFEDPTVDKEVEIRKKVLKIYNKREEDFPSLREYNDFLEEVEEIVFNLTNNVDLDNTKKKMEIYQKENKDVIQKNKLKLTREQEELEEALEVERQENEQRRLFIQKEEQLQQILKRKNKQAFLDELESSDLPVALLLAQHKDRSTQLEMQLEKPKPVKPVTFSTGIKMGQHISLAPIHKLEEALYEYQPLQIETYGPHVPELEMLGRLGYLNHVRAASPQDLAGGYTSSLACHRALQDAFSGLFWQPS
# Method: as §1
# CLK1 = CLK1 (Homo sapiens, UniProt P49759); assay: Kinase inhibition, dose-response; format: biochemical; details: > 10: no inhibition at 10 µM, the highest dose tested
# Method: as §1
# CLK2 = CLK2 (Homo sapiens, UniProt P49760); assay: Kinase inhibition, dose-response; format: biochemical; details: > 10: no inhibition at 10 µM, the highest dose tested
# Method: as §1
# CK1γ3 = CK1γ3 (Homo sapiens, UniProt Q9Y6M4); assay: Kinase inhibition, dose-response; format: biochemical; details: > 10: no inhibition at 10 µM, the highest dose tested
# Method: as §1
# CLK3 = CLK3 (Homo sapiens, UniProt P49761); assay: Kinase inhibition, dose-response; format: biochemical; details: > 10: no inhibition at 10 µM, the highest dose tested
# Method: as §1
# CK1δ = CK1δ (Homo sapiens, UniProt P48730); assay: Kinase inhibition, dose-response; format: biochemical; details: > 10: no inhibition at 10 µM, the highest dose tested
# Method: as §1
# LogD determined by HPLC = format: physicochemical
structure (smiles),measurement,setting,value
"CC(C)n1cnc2c(NCc3ccccc3)cc(N[C@@H]3CCOC3)nc21 [(A), reference compound]",F508del-CFTR activity ('inhibition shift' induced by CFTR-172) in reference to the CFTR activity induced by Trikafta® alone (value=100),F508del-CFTR; C 0.1 µM,82.7
same,F508del-CFTR activity ('inhibition shift' induced by CFTR-172) in reference to the CFTR activity induced by Trikafta® alone (value=100),F508del-CFTR; C 1 µM,107.8
same,F508del-CFTR activity ('inhibition shift' induced by CFTR-172) in reference to the CFTR activity induced by Trikafta® alone (value=100),F508del-CFTR; C 10 µM,114.5
"CC(C)c1cnn2c(NCc3ccccc3)nc(N[C@@H]3CCOC3)nc12 [(C), reference compound]",F508del-CFTR activity ('inhibition shift' induced by CFTR-172) in reference to the CFTR activity induced by Trikafta® alone (value=100),F508del-CFTR; C 0.1 µM,109.7
same,F508del-CFTR activity ('inhibition shift' induced by CFTR-172) in reference to the CFTR activity induced by Trikafta® alone (value=100),F508del-CFTR; C 1 µM,99.5
same,F508del-CFTR activity ('inhibition shift' induced by CFTR-172) in reference to the CFTR activity induced by Trikafta® alone (value=100),F508del-CFTR; C 10 µM,116.1
"CC(C)c1cnn2c(NCc3ccccc3)cc(N[C@@H]3CCOC3)nc12 [(D), reference compound]",F508del-CFTR activity ('inhibition shift' induced by CFTR-172) in reference to the CFTR activity induced by Trikafta® alone (value=100),F508del-CFTR; C 0.1 µM,98.0
same,F508del-CFTR activity ('inhibition shift' induced by CFTR-172) in reference to the CFTR activity induced by Trikafta® alone (value=100),F508del-CFTR; C 1 µM,110.1
same,F508del-CFTR activity ('inhibition shift' induced by CFTR-172) in reference to the CFTR activity induced by Trikafta® alone (value=100),F508del-CFTR; C 10 µM,98.7
CC(C)c1cnc2c(NCc3ccccc3)nc(NC3CCOCC3)nn12 [compound 44],IC50,CLK4,580 nM
same,IC50,DYRK1A,6530 nM
same,IC50,CK1γ2,> 10000 nM
same,IC50,CDK2,579 nM
same,IC50,CDK9,1170 nM
same,IC50,CK1ε,1730 nM
same,IC50,CK1γ1,> 10000 nM
same,IC50,CK1α1,> 10000 nM
same,IC50,CDK7,207 nM
same,IC50,CLK1,537 nM
same,IC50,CLK2,493 nM
same,IC50,CK1γ3,> 10000 nM
same,IC50,CLK3,> 10000 nM
same,IC50,CK1δ,626 nM
"CC(C)c1cnc2c(NCc3ccccc3)nc(NCCC3CCCN3C)nn12 (centres unmarked) [compound 106, N4-Benzyl-7-isopropyl-N2-[2-(1-methylpyrrolidin-2-yl)ethyl]imidazo[2,1-f][1,2,4]triazine-2,4-diamine]",chromatographic logD,LogD determined by HPLC,2.16
"CC(C)c1cnc2c(NCc3ccccc3)nc(Nc3ccnn3C)nn12 [compound 107, N4-Benzyl-7-isopropyl-N2-(2-methylpyrazol-3-yl)imidazo[2,1-f][1,2,4]triazine-2,4-diamine]",F508del-CFTR activation with diluted Trikafta®,"F508del-CFTR; Trikafta® 100%, 33% or 11%, absence or presence of 1 µM compound, FIG 3",compensates the dilution of Trikafta®
same,chromatographic logD,LogD determined by HPLC,2.98
"CC(C)c1cnc2c(NCc3ccccc3)nc(Nc3nccn3C)nn12 [compound 109, N4-Benzyl-7-isopropyl-N2-(1-methylimidazol-2-yl)imidazo[2,1-f][1,2,4]triazine-2,4-diamine]",chromatographic logD,LogD determined by HPLC,3.12
"CC(C)c1cnc2c(NCc3ccccc3)nc(Nc3cnn(C)c3)nn12 [compound 110, N4-Benzyl-7-isopropyl-N2-(1-methylpyrazol-4-yl)imidazo[2,1-f][1,2,4]triazine-2,4-diamine]",chromatographic logD,LogD determined by HPLC,2.89
"CC(C)c1cnc2c(NCc3ccccc3)nc(Nc3ccccc3)nn12 [compound 114, N4-Benzyl-7-isopropyl-N2-phenyl-imidazo[2,1-f][1,2,4]triazine-2,4-diamine]",chromatographic logD,LogD determined by HPLC,4.64
"CC(C)c1cnc2c(NCc3ccccc3)nc(NCc3cnn(C)c3)nn12 [compound 115, N4-Benzyl-7-isopropyl-N2-[(1-methylpyrazol-4-yl)methyl]imidazo[2,1-f][1,2,4]triazine-2,4-diamine]",chromatographic logD,LogD determined by HPLC,2.98
"CC(C)c1cnc2c(NCc3ccccc3)nc(NCc3nccn3C)nn12 [compound 116, N4-Benzyl-7-isopropyl-N2-[(1-methylimidazol-2-yl)methyl]imidazo[2,1-f][1,2,4]triazine-2,4-diamine]",chromatographic logD,LogD determined by HPLC,2.49
"CC(C)c1cnc2c(NCc3ccccc3)nc(NCc3ccccc3)nn12 [compound 121, N2,N4-Dibenzyl-7-isopropyl-imidazo[2,1-f][1,2,4]triazine-2,4-diamine]",chromatographic logD,LogD determined by HPLC,4.6
"CC(C)c1cnc2c(NCc3ccccc3)nc(NCc3ccc(F)cc3)nn12 [compound 122, N4-Benzyl-N2-[(4-Fluorophenyl)methyl]-7-isopropyl-imidazo[2,1-f][1,2,4]triazine-2,4-diamine]",chromatographic logD,LogD determined by HPLC,4.64
"CC(C)c1cnc2c(NCc3ccccc3)nc(NCc3ccccn3)nn12 [compound 123, N4-Benzyl-7-isopropyl-N2-(2-pyridylmethyl)imidazo[2,1-f][1,2,4]triazine-2,4-diamine]",chromatographic logD,LogD determined by HPLC,3.26
"CC(C)c1cnc2c(NCc3ccccc3)nc(NCc3cccnc3)nn12 [compound 124, N4-Benzyl-7-isopropyl-N2-(3-pyridylmethyl)imidazo[2,1-f][1,2,4]triazine-2,4-diamine]",chromatographic logD,LogD determined by HPLC,3.12
"CC(C)c1cnc2c(NCc3ccccc3)nc(NCc3ccncc3)nn12 [compound 125, N4-Benzyl-7-isopropyl-N2-(4-pyridylmethyl)imidazo[2,1-f][1,2,4]triazine-2,4-diamine]",chromatographic logD,LogD determined by HPLC,3.07
Cc1cnc(CNc2nc(NCc3ccccc3)c3ncc(C(C)C)n3n2)cn1 [compound 126],chromatographic logD,LogD determined by HPLC,3
"Cc1cc(C)nc(CNc2nc(NCc3ccccc3)c3ncc(C(C)C)n3n2)n1 [compound 127, N4-Benzyl-N2-[(4,6-dimethylpyrimidin-2-yl)methyl]-7-isopropyl-imidazo[2,1-f][1,2,4]triazine-2,4-diamine]",chromatographic logD,LogD determined by HPLC,3.28

# Reference: patent publication EP4268824A1 (Manros Therapeutics, priority 2022, dated 2023)
